Entries after “also recorded” stand apart in the source; their conditions may differ. Structures can show the parent of a compound that is named as a salt. Where two headings read alike, the source gives them in different places. Blank lines part the entries; values can stand above or below the compound they belong to.
Key:
[1] = system: rat paw; assay: Post-ischemic reperfusion paw swelling (Example 22); type: in vivo, Sprague Dawley male rats; conditions: for Swelling change as a result of treatment: 30 minutes; for Post-ischemic reperfusion 30 minute paw swelling, Mn ± SE: P < 0.02; for % Change as a result of treatment / Paw swelling, Mean ± SE: another study; for Paw swelling, Mean ± SE: i.p. 45 minutes prior
Source text: This important disease model is used to evaluate aspects of tissue injury that occur in heart attack, or myocardial infarction, and stroke. Under these conditions, a significant period of injury can occur after blood flow has been restored, during the period of reperfusion.
To produce ischemia, blood flow to the left hind foot was largely interrupted by application of a tourniquet made up of two size 18 rubber bands wound eight times around the leg just behind the heel. […] Both application and removal of tourniquet were carried out under ether anesthesia. Injury was equated with organ swelling, which was assayed by measurement of the dorsoventral foot diameter with a Schnelltaster caliper, just before application of the tourniquet and at various times following tourniquet removal, during the reperfusion period.
Rats employed were Sprague Dawley males, weighing 240-280 grams. Drug comparisons were made here employing measurements 30 minutes into the reperfusion period. The widely studied drug allopurinol, a xanthine oxidase inhibitor and a free radical scavenging agent, used in the treatment of gout, and widely used to suppress experimental post-ischemic reperfusion injury was used as an experimental treatment standard. In studies below, allopurinol and all new drugs were given intraperitoneally 45-60 minutes prior to application of the tourniquet. Data are reported as the mean swelling (Mn)±standard error (SE). […] Group n is 5 or 6.
In another study, drug comparisons were made at various times after the reperfusion period. In this study, control and drug treatment groups were as above.

[2] = system: rat paw; conditions: in vivo; cited from earlier work
[3] = system: platelet aggregation; assay: Mouse tail bleeding time (Example 31 B); type: in vivo; conditions: for % Increase in bleeding time / Mouse Tail Bleeding Time: 100 mg/kg intraperitoneal; for Mouse Tail Bleeding Time: control 37.0 ± 5.25
Protocol: A study of mouse tail bleeding time, which is an in vivo model of platelet aggregation and thrombosis was also conducted. In this widely employed model, bleeding was induced by a standardized transection of the tail tip and subsequent bleeding time was determined after vertical immersion of the tails in isotonic saline at 37° C. for thirty seconds.
Two compounds of the invention, Compound III and Compound VIII, were assessed as compared with aspirin, in another study of mouse tail bleeding time. In this study, the mice were housed in a standard animal room rather than in a noisy small animal isolator. Also, all three drugs were administered by an intraperitoneal route, rather than a subcutaneous route for Compound III and an intraperitoneal route for aspirin.

[4] = system: stomach ulcers; assay: Gastric ulcers in rats with corona virus infection treated with indomethacin (Example 26); type: in vivo, rat; conditions: indomethacin 30 mg/kg oral
Source text: Corona virus is a non-lethal upper respiratory viral pathogen that not infrequently infects rat colonies. It is a type of rodent coryza or catarrh, the equivalent of a disease that falls somewhere between human influenza and a severe common cold. The animals of this study suffered from this condition, a circumstance which was evident by observation, and which was confirmed by virological diagnosis at the Biological Resources Laboratory of the University of Illinois at Chicago. Since stress is a common component of peptic ulcer development in both animals and man, it was concluded that this feature of the status of these experimental animals rendered them appropriate for an ulcer study.
In this study, animals were not food deprived and were divided into treatment groups such that 15 rats received 30 mg/kg indomethacin alone (in water by oral gavage), 14 rats received indomethacin plus an injection of 25 mg/kg cimetidine subcutaneously, and 7 rats received indomethacin plus subcutaneous injection of 17.5 mg/kg of Compound III.
All animals were sacrificed by ether euthanasia 24 hours later and their stomachs evaluated for ulcer pathology. In this study ulcers were not hemorrhagic. Results are shown below as the average number of stomach ulcers per stomach.

[5] = system: peritoneal neutrophils; assay: In vitro neutrophil chemotaxis toward zymosan-activated rat serum (Example 24); type: cell-based, mouse; conditions: for IC50: 6 h, read-out: ID50 (molar concentration that inhibited chemotaxis by 50 percent)
Protocol: In vitro neutrophil chemotaxis studies were carried out by standard methods, as follows:
Mice were injected with complete Freund's adjuvant (CFA) and peritoneal cells, principally neutrophjls (>90 percent), were reproved from the mice 24 hours thereafter. Blind-well chemotactic chambers (Nucleopore Corp., Pleasanton, Calif.) were utilized.
Medium (RPMI 1640 plus 10 percent fetal calf serum) or medium plus 20 percent zymosan-activated rat serum (ZAS) was added to the lower compartment of each chamber. A nucleopore filter (8 μm pore size) was placed between compartments and 1×10^5 peritoneal neutrophils (above) suspended in medium were placed in the upper compartment. Chambers were incubated for six hours, after which time the filters were removed and stained with Giemsa stain. The number of cells on the lower surface of the filter was counted under a microscope. Treatment groups were assayed in duplicate.
The studies were carried out more specifically as follows:
Zymosan (Sigma Chemical Co., St. Louis, Mo.) was mixed with rat serum for one hour at 37° C. at 1 milligram (mg)/ml. The resulting chemoattractant composition was filtered, aliquotted and stored frozen at -70° C. prior to use.
The above chemoattractant composition was used as a 20 percent v/v solution in medium.
The chemotaxis chambers were arranged as follows:
The chambers were incubated at 37° C. for six hours, after which the chambers were dismantled, and the filters removed and treated as follows:
a) The filters were immersed in Giemsa stain diluted 1:50 for 30-45 minutes.
b) The stained filters were rinsed gently in distilled water for 3-5 minutes.
c) The stained, rinsed filters were air dried without blotting.
Several compounds described herein and control compounds ("drug", above) were examined at various concentrations, in duplicate. The molar concentration of a drug that inhibited the observed chemotaxis by 50 percent, defined as the ID50 value, was determined as shown below.

[6] = system: gastric submucosal thrombi; assay: Inhibition of gastric submucosal thrombi (Example 30); type: in vivo, rat; conditions: 10 mg/kg IV
Protocol: Thrombosis was induced in rat stomach submucosal blood vessels by the following two-step treatment. First, 1.5 ml of 100 percent ethanol was administered by oral gavage. This produces non-specific injury to tissues and blood vessels of the gastric mucosa. Second, 1.0 mg of adenosine diphosphate (ADP) in 1.0 ml of H2 O, was administered by oral garage 15 minutes after the administration of ethanol. Administration of ADP biases the organ response towards thrombosis by inducing platelet aggregation.
The pathology generated is typically a disseminated pattern of multiple small thrombi, observed on examination of the gastric mucosa, 1-3 hours after ethanol administration. These thrombi are dark red, dilated, thrombosed submucosal blood vessel segments, each being approximately 1 mm thick and 2 to 6 mm long.
In these studies, animals were treated with drug or centrol at one hour prior to ethanol administration. Thrombosis was induced as discussed before, and animals were sacrificed at 1.5 hours after ethanol administration. Focal thrombi were then counted. In this study, n=9-10.

[7] = Dissolution and buffering of suspensions, HCl titration (Example 16)
Source text: Note that the term "apparent pK" in this context is meant to encompass the maximization of buffering that come both from solid-state dissolution and its titration as solute.

[8] = Mus musculus, Neutrophil, read-out: Percent Inhibition of chemotaxis
[9] = Mus musculus, Neutrophil, 20 percent zymosan-activated rat serum, six hours, 37° C.
[10] = Mus musculus, Neutrophil, dose 1.0 μg/ml, read-out: Percent Inhibition of chemotaxis
[11] = Mus musculus, Neutrophil, dose 0.1 μg/ml, read-out: Percent Inhibition of chemotaxis
[12] = Mus musculus, Neutrophil, dose 10.0 μg/ml, read-out: Percent Inhibition of chemotaxis

Compound: Oc1ncnc2[nH]ncc12 [Allopurinol, reference compound]
Swelling change as a result of treatment ([1]; study B, i.p., Compound III 0.2 mg/kg, allopurinol 20 mg/kg): -35% | Post-ischemic reperfusion 30 minute paw swelling, Mn ± SE ([1]; study B, i.p., Compound III 0.2 mg/kg, allopurinol 20 mg/kg, control 20.5 ± 0.76): 13.3 ± 0.56 0.1 mm | effect on edema that develops following removal of the tourniquet, in words [2]: suppress the edema | near toxic level at which allopurinol is utilized in reperfusion injury [2]: 20 to 30 mg/kg

Compound: CC(=O)Oc1ccccc1C(=O)O [Aspirin, reference compound]
% Increase in bleeding time [3]: 97% | Mouse Tail Bleeding Time [3]: 72.88 ± 10.9 s

Compound: CN/C(=N/CCSCc1nc[nH]c1C)NC#N [Cimetidine, reference compound]
Percent Inhibition of ulcer frequency ([4]; cimetidine 25 mg/kg s.c. or Compound III 17.5 mg/kg s.c.): 58% | Ulcer Frequency per stomach, Mn ± SE ([4]; cimetidine 25 mg/kg s.c. or Compound III 17.5 mg/kg s.c. where given, P<0.02): 1.07 ± 0.25 Per Stomach

Compound: O=S(=O)(O)OC[C@@H](OS(=O)(=O)O)[C@H]1O[C@H](O)[C@H](O)[C@H]1OS(=O)(=O)O [Compound II, 3,5,6-Tri-O-sulfo-α-D-glucofuranose, tripotassium salt]
IC50 ([5]; Mus musculus, Neutrophil): 30 µM | inhibition at 0.1 µg/mL [5, 8]: 2.5% | inhibition at 1 µg/mL [5, 8]: 45.5% | inhibition at 10 µg/mL [5, 8]: 48.5%

IC50 [5, 9]: > 10 µM
Compound: CCCCC1(CCCC)O[C@H]2O[C@H]([C@@H](COS(=O)(=O)O)OS(=O)(=O)O)[C@H](OS(=O)(=O)O)[C@H]2O1 [Compound IV, 1,2-O-(5-Nonylidene)-3,5,6-tri-O-sulfo-α-D-glucofuranose, tripotassium salt]
Post-ischemic reperfusion 30 minute paw swelling, Mn ± SE ([1]; study D, 0.2 mg/kg i.p., control 11.4 ± 0.51): 21.2 ± 2.25 0.1 mm | Swelling change as a result of treatment ([1]; study D, 0.2 mg/kg i.p., edema enhancement): +86% | inhibition at 1 µg/mL [5, 10]: 44% | Percent Inhibition of chemotaxis ([5]; dose 1.0 μg/ml, tripotassium salt): 28.5%

IC50 [5, 9]: 2 µM
Compound: CCC1(CC)O[C@H]2O[C@H]([C@@H](COS(=O)(=O)O)OS(=O)(=O)O)[C@H](OS(=O)(=O)O)[C@H]2O1 [Compound V, 1,2-O-(3-Pentylidene)-3,5,6-tri-O-sulfo-α-D-glucofuranose, tripotassium salt]
inhibition at 0.1 µg/mL [5, 11]: -8% | inhibition at 1 µg/mL [5, 10]: 62% | inhibition at 10 µg/mL [5, 12]: 101%

Compound: O=S(=O)(O)OC[C@H]1O[C@H](OS(=O)(=O)O)[C@H](O)[C@@H](OS(=O)(=O)O)[C@@H]1O [Compound VII, 1,3,6-Tri-O-sulfo-α-D-glucopyranose, tripotassium salt, reference compound]
IC50 ([5]; Mus musculus, Neutrophil): < 100 µM | inhibition at 0.1 µg/mL [5, 8]: 8% | inhibition at 1 µg/mL [5, 8]: 23% | inhibition at 10 µg/mL [5, 8]: 29%

Compound: CC1(C)O[C@H]2O[C@H]([C@@H](COS(=O)(=O)O)OS(=O)(=O)O)[C@@H](OS(=O)(=O)O)[C@H]2O1 [Compound VIII, 1,2-O-(2-Propylidene)-3,5,6-tri-O-sulfo-α-D-allofuranose, tripotassium salt]
paw swelling less than control ([1]; 60 minutes of reperfusion time, i.p.): 71% | % Change as a result of treatment ([1]; reperfusion time 20 mins., i.p.): -46% | Paw swelling, Mean ± SE ([1]; reperfusion time 20 mins., control 8.20 ± 1.02): 4.60 ± 0.40 0.1 mm | % Change as a result of treatment ([1]; reperfusion time 30 mins., i.p.): -64% | Paw swelling, Mean ± SE ([1]; reperfusion time 30 mins., control 6.60 ± 0.87): 2.40 ± 0.51 0.1 mm | % Increase in bleeding time [3]: 278% | Mouse Tail Bleeding Time [3]: 139.88 ± 28.23 s | potency relative to aspirin in prolonging mouse tail bleeding time / suppressing platelet aggregation ([3]; first study: aspirin 75 mg/kg IP, Compound III s.c. or oral, second study: all IP 100 mg/kg, tripotassium salt): more effective than aspirin; also recorded: more potent than aspirin in the suppression of platelet aggregation | Drug Effect on thrombi [6]: -38.1% | Mean Thrombi per Stomach, ±SE ([6]; ethanol + ADP, control 10.60 ± 1.42): 6.56 ± 1.60 per Stomach

Compound: C[C@@H]1C[C@H]2[C@@H]3CCC4=CC(=O)C=C[C@]4(C)[C@@]3(F)[C@@H](O)C[C@]2(C)[C@@]1(O)C(=O)CO [Dexamethasone]
effect on edema that develops following removal of the tourniquet, in words [2]: effective only when administered more than three hours in advance

IC50 [5, 9]: 0.1 µM
Compound: CCCCC[C@H](O)/C=C/[C@H]1[C@H](O)CC(=O)[C@@H]1C/C=C\CCCC(=O)O [PGE2, Prostaglandin E2, reference compound]
inhibition at 0.01 µg/mL ([5]; Mus musculus, Neutrophil, dose 0.01 μg/ml, read-out: Percent Inhibition of chemotaxis): 71% | inhibition at 0.1 µg/mL [5, 11]: 91.5% | inhibition at 0.2 µg/mL ([5]; Mus musculus, Neutrophil, dose 0.2 μg/ml, read-out: Percent Inhibition of chemotaxis): 71.5% | relative activity in inhibiting neutrophil chemotaxis, in words ([5]; in vitro): about equally as active as Compound III

IC50 [5, 9]: > 50 µM
Compound: C[C@]12C=CC(=O)C=C1CC[C@@H]1[C@@H]2C(=O)C[C@@]2(C)[C@H]1CC[C@]2(O)C(=O)CO [Prednisone, reference compound]
inhibition at 0.1 µg/mL [5, 11]: 15.5% | inhibition at 1 µg/mL [5, 10]: 16% | inhibition at 10 µg/mL [5, 12]: 20%

Compound: CC(=O)Nc1ccc(C=Cc2ccc(N=C=S)cc2S(=O)(=O)O)c(S(=O)(=O)O)c1 [SITS, 4-acetamido-4'-isothiocyano-stilbene-2,2'-disulfonate, reference compound]
IC50 ([5]; Mus musculus, Neutrophil): > 20 µM | inhibition at 0.1 µg/mL [5, 8]: 18.5% | inhibition at 1 µg/mL [5, 8]: -12.5% | inhibition at 10 µg/mL [5, 8]: 48.5%

HCl needed to lower pH of suspension to below pH 2.00 ([7]; 50 mg in 20 ml distilled water, initial pH 4.44 (aluminum trihydroxide), 4.91 (sucralfate), 4.23 (Compound III:Al), water alone 0.30): 0.90 meq
Compound: [OH][Al]([OH])[OH] [aluminum trihydroxide, reference compound]
buffering action, in words ([7]; HCl titration): only minor buffering power relative to distilled H2 O, but no pK

Compound: O=C(O)Cc1ccccc1Nc1c(Cl)cccc1Cl [diclofenac]
effect on edema that develops following removal of the tourniquet, in words [2]: not effective at any time
